We go through five molecules from ChEMBL document CHEMBL5303304, “EUbOPEN Chemogenomics Library - IncuCyte” (2023).

What all share (type): toxicity, cell-based
The test system of one data set is HEK-293T. Description: Incucyte cell viability with HEK293T. To be noted: human, 10 µM, compound concentration 10 uM.
The test system of a further data set is Fibroblast. Description: Incucyte cell viability with human fibroblast. The following applies: 10 µM, compound concentration 10 uM.
A further data set concerns U2OS. Briefly: Incucyte cell viability with U2OS. The following applies: human, 10 µM, compound concentration 10 uM.
Also: unitless GR value; below 1 slowed growth and below 0 cell loss.

For the molecule `COc1cc2c(NC3CCN(C(C)C)CC3)nc(C3CCCCC3)nc2cc1OCCCN1CCCC1`, the “Growth Rate” value in the data set on HEK-293T (0 h, replicate number 2) was -1; with HEK-293T (6 h, replicate number 1), -0.49; with HEK-293T (6 h, replicate number 2) it was -0.51; in the data set on HEK-293T (12 h, replicate number 1), -0.43; in the data set with HEK-293T (12 h, replicate number 2) it was -0.45; with HEK-293T (18 h, replicate number 1) it was -0.39. For the same molecule, the “Growth Rate” value is -0.38 in the data set with HEK-293T (18 h, replicate number 2); -0.26 in the data set with HEK-293T (24 h, replicate number 1); -0.39 with HEK-293T (24 h, replicate number 2); -0.16 in the data set with Fibroblast (6 h, replicate number 1); -0.65 with Fibroblast (6 h, replicate number 2); -0.07 with Fibroblast (12 h, replicate number 1). For the same molecule, the “Growth Rate” value with Fibroblast (12 h, replicate number 2) was -0.48; in the data set on Fibroblast (18 h, replicate number 1) it was -0.27; in the data set on Fibroblast (18 h, replicate number 2), -0.46; in the data set with Fibroblast (24 h, replicate number 1), -0.35; with Fibroblast (24 h, replicate number 2), -0.46; in the data set with U2OS (0 h, replicate number 1), -0.98. Moreover, the “Growth Rate” value in the data set on U2OS (0 h, replicate number 2) is 0.19; in the data set on U2OS (6 h, replicate number 1) it was 0.4; in the data set with U2OS (6 h, replicate number 2), 0.03; in the data set with U2OS (12 h, replicate number 1), 0.2; in the data set on U2OS (12 h, replicate number 2) it was -0.13; in the data set with U2OS (18 h, replicate number 1) it was 0.05. Besides, the “Growth Rate” value in the data set on U2OS (18 h, replicate number 2) was -0.16; in the data set on U2OS (24 h, replicate number 1), -0.01; with U2OS (24 h, replicate number 2), -0.23.
`O=C1NCc2ccc3c(-c4cccc(Cl)c4)c[nH]c3c21`: the “Growth Rate” value in the data set with HEK-293T (6 h, replicate number 1) is -0.5; in the data set on HEK-293T (12 h, replicate number 1) it was -0.49; in the data set on HEK-293T (12 h, replicate number 2), -0.24; with HEK-293T (18 h, replicate number 1) it was -0.21; in the data set with HEK-293T (18 h, replicate number 2), -0.13; with HEK-293T (24 h, replicate number 1), -0.06. Moreover, the “Growth Rate” value in the data set with HEK-293T (24 h, replicate number 2) was -0.07; in the data set on Fibroblast (6 h, replicate number 2) it was -1; in the data set with Fibroblast (12 h, replicate number 1), -1; in the data set on Fibroblast (12 h, replicate number 2), -0.89; in the data set with Fibroblast (18 h, replicate number 1), -0.89; with Fibroblast (18 h, replicate number 2) it was -0.75. Moreover, the “Growth Rate” value in the data set on Fibroblast (24 h, replicate number 1) is -0.46; in the data set with Fibroblast (24 h, replicate number 2), -0.57; with U2OS (6 h, replicate number 1), -0.34; in the data set on U2OS (6 h, replicate number 2) it was 0.05; with U2OS (12 h, replicate number 1), -0.32; in the data set on U2OS (12 h, replicate number 2), -0.15. For the same molecule, the “Growth Rate” value was -0.16 in the data set on U2OS (18 h, replicate number 1); -0.11 with U2OS (18 h, replicate number 2); -0.1 in the data set on U2OS (24 h, replicate number 1); -0.06 in the data set on U2OS (24 h, replicate number 2).
Take `N#Cc1ccc(C#CC[C@@H](C#N)NC(=O)[C@@H]2CCCCN2)cc1F`: the “Growth Rate” value in the data set with HEK-293T (0 h, replicate number 1) is reported as 0.68; with HEK-293T (6 h, replicate number 2), 0.76; in the data set on HEK-293T (12 h, replicate number 2) it was 0.89; with Fibroblast (0 h, replicate number 1), -1; in the data set with Fibroblast (0 h, replicate number 2), -0.9; with Fibroblast (6 h, replicate number 1) it was 0.62. The “Growth Rate” value in the data set on Fibroblast (12 h, replicate number 1) was 0.89; with Fibroblast (12 h, replicate number 2) it was 1; with Fibroblast (18 h, replicate number 1), 0.73; in the data set on Fibroblast (18 h, replicate number 2), 0.9; in the data set with Fibroblast (24 h, replicate number 1), 0.74; with U2OS (0 h, replicate number 1), 0.67. The “Growth Rate” value was 0.31 in the data set with U2OS (0 h, replicate number 2); 0.57 with U2OS (6 h, replicate number 1); 0.92 in the data set with U2OS (12 h, replicate number 1); 0.73 with U2OS (12 h, replicate number 2); 0.85 in the data set on U2OS (18 h, replicate number 2); 0.86 in the data set on U2OS (24 h, replicate number 2).
Regarding `O=C(O)[C@]1(Cc2cccc(Nc3nccs3)n2)CC[C@@H](Oc2cccc(Cl)c2F)CC1` [MK-5108], the “Growth Rate” value with HEK-293T (0 h, replicate number 1) was 0.43; in the data set on HEK-293T (6 h, replicate number 1) it was 0.9; with HEK-293T (6 h, replicate number 2), 0.73; in the data set on HEK-293T (12 h, replicate number 1), 0.39; with HEK-293T (12 h, replicate number 2), 0.16; with HEK-293T (18 h, replicate number 1), 0.47. The “Growth Rate” value in the data set with HEK-293T (18 h, replicate number 2) is 0.35; in the data set with HEK-293T (24 h, replicate number 1), 0.63; in the data set with HEK-293T (24 h, replicate number 2), 0.61; in the data set with Fibroblast (0 h, replicate number 2) it was -1; in the data set on Fibroblast (12 h, replicate number 1), 0.18; in the data set on Fibroblast (12 h, replicate number 2), 0.85. In addition, the “Growth Rate” value is given as 0.17 in the data set with Fibroblast (18 h, replicate number 1); 0.26 in the data set on Fibroblast (18 h, replicate number 2); 0.32 with Fibroblast (24 h, replicate number 1); 0.2 in the data set with Fibroblast (24 h, replicate number 2); 0.98 in the data set on U2OS (6 h, replicate number 1); 0.59 with U2OS (6 h, replicate number 2). Besides, the “Growth Rate” value was 0.56 in the data set with U2OS (12 h, replicate number 1); 0.14 with U2OS (12 h, replicate number 2); 0.21 in the data set on U2OS (18 h, replicate number 1); 0.25 with U2OS (18 h, replicate number 2); 0.37 in the data set with U2OS (24 h, replicate number 1); 0.47 in the data set with U2OS (24 h, replicate number 2).
`c1ccc(C2CCN(c3cnc4c(N5CCOCC5)nccn34)CC2)cc1`: the “Growth Rate” value in the data set with HEK-293T (6 h, replicate number 1) was 0.74; with HEK-293T (6 h, replicate number 2), 0.9; in the data set with HEK-293T (12 h, replicate number 1), 0.94; in the data set with HEK-293T (18 h, replicate number 2), 0.99; in the data set with Fibroblast (0 h, replicate number 1), -0.87; in the data set on Fibroblast (6 h, replicate number 2), 0.96. Besides, the “Growth Rate” value in the data set with Fibroblast (12 h, replicate number 2) was found to be 0.56; in the data set with Fibroblast (18 h, replicate number 2), 0.64; in the data set on Fibroblast (24 h, replicate number 1) it was 1; in the data set on U2OS (6 h, replicate number 1) it was 0.91; with U2OS (12 h, replicate number 1), 0.92; with U2OS (18 h, replicate number 1), 0.9.
